Reference: patent US20030044399A1, “Method of treatment” (SmithKline Beecham Corporation, priority 1998, published 2003)
Read-outs that look alike come from different tables or passages of the source.

Assays:
Rhodazain = Rhodazain (Trypanosoma brucei rhodesiense, UniProt Q95PM0); test: Cysteine protease inhibition, progress curve method, rhodazain; format: biochemical, Trypanosoma brucei rhodesiensi; settings: Rhodazain Ki (nM), 10 uM Cbz-Leu-Arg-AMC, 100 mM Na acetate pH 5.5, 5 mM cysteine
Experimental: (§1) Standard assay conditions for the determination of kinetic constants used 10 uM fluorogenic peptide substrate, Cbz-Phe-Arg-AMC for the cysteine proteases from Leishmania spp and Schistosoma Mansoni, Cbz-Leu-Arg-AMC for the cysteine proteases from Plasmodium falciparum and Trypanosoma brucei rhodesiensi, and Ac-Lys-Glu-Lys-Leu-Arg-AMC (4 uM final substrate concentration) for the cysteine protease from Trypoanosoma cruzi, and were determined in 100 mM Na acetate at pH 5.5 containing 5 mM cysteine. Stock substrate solutions were prepared at concentrations of […] in DMSO with 10 uM (4 uM for Ac-Lys-Glu-Lys-Leu-Arg-AMC) final substrate concentration in the assays. The final DMSO concentration was 2% and the final volume was 100 uL. All assays were conducted at ambient temperature. Product progress curves were generated over 20 to 30 minutes following formation of AMC product.
(§2) Potential inhibitors were evaluated using the progress curve method. Assays were carried out in the presence of variable concentrations of test compound. Reactions were initiated by addition of enzyme to buffered solutions of inhibitor and substrate. Data analysis was conducted according to one of two procedures depending on the appearance of the progress curves in the presence of inhibitors. For those compounds whose progress curves were linear, apparent inhibition constants (Ki,app) were calculated according to equation 1 (Brandt et al., Biochemitsry, 1989, 28, 140):
(§3) v=VmA/[Ka(1+I/Ki,app)+A] (1)
(§4) Where v is the velocity of the reaction with maximal velocity Vm, A is the concentration of substrate with Michaelis constant of Ka, and I is the concentration of inhibitor.
(§5) [AMC]=vsst+(v0−vss)[1−exp (−kobst)]/kobs (2)
(§6) Where [AMC] is the concentration of product formed over time t, v0 is the initial reaction velocity and vss is the final steady state rate. Values for kobs were then analyzed as a linear function of inhibitor concentration to generate an apparent second order rate constant (kobs/inhibitor concentration or kobs/[I]) describing the time-dependent inhibition. A complete discussion of this kinetic treatment has been fully described (Morrison et al., Adv. Enzymol. Relat. Areas Mol. Biol., 1988, 61, 201).
(§7) Exemplary inhibition data for the compounds used in the present method collected in accordance with the above-described procedure are listed in Table I.

Cruzain = Cruzain (Trypanosoma cruzi, UniProt P25779); test: Cysteine protease inhibition, progress curve method, cruzain; format: biochemical; settings: 4 uM Ac-Lys-Glu-Lys-Leu-Arg-AMC, 100 mM Na acetate pH 5.5, 5 mM cysteine
Sequence of Cruzain (P25779 123-337): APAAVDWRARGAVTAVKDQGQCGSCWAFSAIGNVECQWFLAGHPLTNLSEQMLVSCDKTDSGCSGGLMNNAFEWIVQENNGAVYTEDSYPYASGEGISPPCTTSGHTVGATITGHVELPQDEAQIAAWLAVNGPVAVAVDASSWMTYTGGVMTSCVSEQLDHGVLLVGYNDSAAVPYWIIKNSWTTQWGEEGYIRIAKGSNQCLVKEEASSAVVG
Experimental: as §1, §2, §3, §4, §5, §6, §7

Sequence of Rhodazain (Q95PM0 entry or part of it): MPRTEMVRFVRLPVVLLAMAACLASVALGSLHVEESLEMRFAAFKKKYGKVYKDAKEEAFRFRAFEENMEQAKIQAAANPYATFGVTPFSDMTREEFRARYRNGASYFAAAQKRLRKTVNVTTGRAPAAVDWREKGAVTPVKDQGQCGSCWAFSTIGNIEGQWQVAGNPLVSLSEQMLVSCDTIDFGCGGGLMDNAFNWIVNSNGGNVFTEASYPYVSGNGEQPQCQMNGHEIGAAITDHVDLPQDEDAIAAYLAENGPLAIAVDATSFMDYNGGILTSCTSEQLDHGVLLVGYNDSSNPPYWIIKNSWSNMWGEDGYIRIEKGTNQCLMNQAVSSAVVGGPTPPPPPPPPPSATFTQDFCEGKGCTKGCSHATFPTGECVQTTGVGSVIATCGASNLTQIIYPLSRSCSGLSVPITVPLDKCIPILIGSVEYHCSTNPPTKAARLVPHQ

Ki (Cruzain; read-out: Cruzain Ki) [nM] | Structure (SMILES) | Ki (Rhodazain) [nM] | further results
 | O=C(N[C@H](CC1CCCCC1)C(=O)N[C@@H]1CCCN(S(=O)(=O)c2ccccn2)CC1=O)c1cc2ccccc2o1 (stereo in doubt) [Example 102, Benzofuran-2-carboxylic acid {(S)-2-cyclohexyl-1-[3-oxo-1-(pyridine-2-sulfonyl)-azepan-4-ylcarbamoyl]-ethyl}-amide] | 3.7 | 
 | CC(C)C[C@@H](NC(=O)c1cnc2ccccc2n1)C(=O)N[C@@H]1CCCN(S(=O)(=O)c2cccc[n+]2[O-])CC1=O [Example 101, Quinoxaline-2-carboxylic acid {(S)-3-methyl-1-[3-oxo-1-(1-oxy-pyridine-2-sulfonyl)-azepan-4-ylcarbamoyl]-butyl}amide] | 11 | 
 | CC(C)C[C@H](NC(=O)c1cc2ccccc2o1)C(=O)N[C@H]1CCCN(S(=O)(=O)c2ncc[nH]2)CC1=O [Example 41, Benzofuran-2-carboxylic acid {(S)-3-methyl-1-[1-(1H-imidazole-2-sulfonyl)-3-oxo-azepan-4-ylcarbamoyl]-butyl}amide] | 2.9 | 
 | CC(C)C[C@H](NC(=O)c1cnc2ccccc2n1)C(=O)N[C@H]1CCCN(S(=O)(=O)c2nccs2)CC1=O [Example 129, Quinoxaline-2-carboxylic acid {(S)-3-methyl-1-[3-oxo-1-(thiazole-2-sulfonyl)-azepan-4-ylcarbamoyl]-butyl}amide] | 5.6 | 
 | CC(C)C[C@@H](NC(=O)c1ccc2ccccc2c1)C(=O)N[C@@H]1CCCN(S(=O)(=O)c2ccccn2)CC1=O (stereo in doubt) [Example 17, Naphthalene-2-carboxylic acid {(S)-3-methyl-1-[3-oxo-1-(pyridine-2-sulfonyl)-azepan-4-ylcarbamoyl]butyl}-amide] | 8.3 | 
 | O=C(N[C@@H](Cc1ccccc1)C(=O)NC1CCCN(S(=O)(=O)c2ccccn2)CC1=O)c1cccc2cccnc12 (stereo partly drawn) [Example 176, Quinoline-8-carboxylic acid {(S)-1-[3-oxo-1-(pyridine-2-sulfonyl)-azepan-4-ylcarbamoyl]-2-phenyl-ethyl}-amide] | 5.9 | 
 | COc1ccc2c(C)c(C(=O)N[C@@H](CC(C)C)C(=O)N[C@H]3CCN(S(=O)(=O)c4cccc[n+]4[O-])CCC3=O)oc2c1 [Example 204, 6-Methoxy-3-methyl-benzofuran-2-carboxylic acid {(S)-3-methyl-1-[3-oxo-1-(1-oxy-pyridine-2-sulfonyl)-azepan-4-ylcarbamoyl]-butyl}-amide] | 4.5 | 
 | CC(C)C[C@@H](NC(=O)c1ccc(-c2cccc(C(F)(F)F)c2)o1)C(=O)NC1CCCN(C(=O)c2cccc[n+]2[O-])CC1=O (stereo partly drawn) [Example 186, 5-(3-Trifluoromethyl-phenyl)-furan-2-carboxylic acid ((S)-3-methyl-1-{3-oxo-1[-1-(1-oxy-pyridin-2-yl)-methanoyl]-azepan-4-ylcarbamoyl}-butyl)-amide] | 11 | 
32 | CC(C)C[C@@H](NC(=O)c1cc2cc(OCCN3CCCC3)ccc2o1)C(=O)NC1CCCN(S(=O)(=O)c2ccccc2)CC1=O (single isomer, unassigned) [Example 13] |  | 
13 | CC(C)C[C@@H](NC(=O)c1cc2cc(F)c(F)cc2o1)C(=O)N[C@H]1CCCN(S(=O)(=O)c2cccc[n+]2[O-])CC1=O [Example 163, 5,6-Difluoro-benzofuran-2-carboxylic acid {(S)-3-methyl-1-[3-oxo-1-(1-oxy-pyridine-2-sulfonyl)-azepan-4-ylcarbamoyl]-butyl}amide] |  | 
16 | CC(C)C[C@@H](NC(=O)c1cc2ccccc2o1)C(=O)N[C@@H]1CCCN(S(=O)(=O)c2ccccc2)CC1=O (stereo in doubt) [Example 12, Benzofuran-2-carboxylic acid [(S)-1-(1-benzenesulfonyl-3-oxo-azepan-4-ylcarbamoyl)-3-methyl-butyl]amide] |  | 
24 | CC(C)C[C@@H](NC(=O)c1cc2ccccc2cn1)C(=O)N[C@@H]1CCCN(S(=O)(=O)c2ccccn2)CC1=O (stereo in doubt) [Example 28, Isoquinoline-3-carboxylic acid {(S)-3-methyl-1-[3-oxo-1-(pyridine-2-sulfonyl)-azepan-4-ylcarbamoyl]-butyl}amide] |  | 
9.8 | CC(C)C[C@@H](NC(=O)c1ccc2c(c1)OCCCO2)C(=O)N[C@@H]1CCCN(S(=O)(=O)c2cccc[n+]2[O-])CC1=O [Example 60, 3,4-Dihydro-2H-benzo[b][1,4]dioxepine-7-carboxylic acid {(S)-3-methyl-1-[3-oxo-1-(1-oxy-pyridine-2-sulfonyl)-azepan-4-ylcarbamoyl]butyl}amide] |  | 
67 | CC(C)C[C@@H](NC(=O)c1cc2cc(OCCN3CCCCC3)ccc2o1)C(=O)NC1CCCN(S(=O)(=O)c2ccccc2)CC1=O (single isomer, unassigned) [Example 14] |  | 
44 | CC(C)C[C@H](NC(=O)c1ccc2ccccc2n1)C(=O)NC1CCCN(Cc2ccccc2)CC1=O (stereo partly drawn) [Example 2, Quinoline-2-carboxylic acid [(S)-1-(1-benzyl-3-oxo-azepan-4-ylcarbamoyl)-3-methyl-butyl]amide] |  | 
20 | COc1cccc2oc(C(=O)N[C@@H](CC(C)C)C(=O)N[C@H]3CCN(S(=O)(=O)c4cccc[n+]4[O-])CCC3=O)c(C)c12 [Example 203, 4-Methoxy-3-methyl-benzofuran-2-carboxylic acid {(S)-3-methyl-1-[3-oxo-1-(1-oxy-pyridine-2-sulfonyl)-azepan-4-ylcarbamoyl]-butyl}-amide] |  | 
6.7 | CC(C)C[C@H](NC(=O)c1cc2ccccc2s1)C(=O)N[C@@H]1CCCN(S(=O)(=O)c2cccs2)CC1=O [Example 146, Benzo[b]thiophene-2-carboxylic acid-{(S)-3-methyl-1-[3-oxo-1-(thiophene-2-sulfonyl)-azepan-4-ylcarbamoyl]-butyl}-amide] |  | 
23 | CC(C)C[C@@H](NC(=O)c1cc2cc(OCCN3CCOCC3)ccc2o1)C(=O)N[C@@H]1CCCN(S(=O)(=O)c2ccccc2)CC1=O (single isomer, unassigned) [Example 7] |  | 
33 | CC(C)C[C@@H](NC(=O)COc1ccc(F)cc1)C(=O)N[C@@H]1CCCN(S(=O)(=O)c2ccccn2)CC1=O (stereo in doubt) [Example 37, (S)-2-[2-(4-Fluoro-phenoxy)-acetylamino]-4-methyl-pentanoic acid [3-oxo-(pyridine-2-sulfonyl)-azepan-4-yl]-amide] |  | 
 | Cc1c(C(=O)NC(CC(C)C)C(=O)NC2CCCN(S(=O)(=O)c3cccc[n+]3[O-])CC2=O)oc2ccc3ccccc3c12 [Example 210, 1-methyl-naphtho[2,1-b]-furan-2-carboxylic acid {(S)-3-methyl-1-[3oxo-1-(1-oxy-pyridine-2-sulfonyl)-azepan-4-ylcarbamoyl]-butyl}-amide] |  | Ki (Cruzain; Cruzain Ki nM): 6.6 nM
8.7 | CC(C)C[C@H](NC(=O)c1cnc2ccccc2n1)C(=O)N[C@H]1CCCN(S(=O)(=O)c2ccccc2F)CC1=O [Example 96, Quinoxaline-2-carboxylic acid-{(S)-1-[1-(2-fluoro-benzenesulonyl)-3-oxo-azepan-4-ylcarbamoyl]-3-methyl-butyl}-amide] |  | 
21 | CC(C)C[C@@H](NC(=O)c1cc2cc(OCCN3CCOCC3)ccc2o1)C(=O)N[C@@H]1CCCN(S(=O)(=O)c2ccccc2)CC1=O (stereo in doubt) [Example 6, 5-(2-Morpholin-4-yl-ethoxy)-benzofuran-2-carboxylic acid [(S)-1-(1-benzenesulfonyl-3-oxo-azepan-4-ylcarbamoyl)-3-methyl-butyl]amide] |  | 
15 | CC(C)CC(NC(=O)NCc1ccccc1)C(=O)NC1CCCN(S(=O)(=O)c2ccccn2)CC1=O [Example 80, (S)-2-(3-Benzyl-ureido)-4-methyl-pentanoic acid [3-oxo-carboxylic-(pyridine-2-sulfonyl)azepan4-yl]-amide] |  | 

Structure (SMILES) | Ki (Cruzain; read-out: Cruzain Ki) [nM] | Ki (Rhodazain) [nM] | further results
CC(C)C[C@@H](NC(=O)c1ccc2ccccc2n1)C(=O)N[C@@H]1CCCN(S(=O)(=O)c2ccccn2)CC1=O (stereo in doubt) [Example 24, Quinoline-2-carboxylic acid {(S)-3-methyl-1-[3-oxo-1-(pyridine-2-sulfonyl)-azepan-4-ylcarbamoyl]-butyl}amide] | 23 |  | 
COc1ccc2oc(C(=O)N[C@H](CC(C)C)C(=O)N[C@@H]3CCCN(S(=O)(=O)c4ccccn4)CC3=O)cc2c1 (stereo in doubt) [Example 33, 5-Methoxy-benzofuran-2-carboxylic acid {(S)-3-methyl-1-[3-oxo-1-(pyridine-2-sulfonyl)-azepan-4-ylcarbamoyl]-butyl}amide] | 14 |  | 
